Tests used:
[1] = Distribution of ^238 Pu-citrate in Mouse Tissues (actinide-ion sequestering activity, animal studies); format: in vivo; design: Liver, distribution of ^238 Pu-citrate (mean) / Skel, distribution of ^238 Pu-citrate (mean) / G.I., distribution of ^238 Pu-citrate (mean) / Kidney, distribution of ^238 Pu-citrate (mean) / Total, distribution of ^238 Pu-citrate: unit not given here
Procedure: Specifically, animal studies were carried out with compounds 2, 3, 4, and 10.
Distribution of ^238 Pu-Citrate in Mouse Tissues
Age of animals 74 weeks 74 weeks
^(b) Animals injected I.P. (Intraperitoneum)
(§1) Distribution of ^238 Pu-citrate in Mouse Tissues
Age of Animals 68 weeks 68 weeks
^(a) Animals injected I.M. (Intramuscular)
as §1
^(b) Animals injected I.P.
Age of animals 18 weeks 18 weeks
^(a) Animals injected I.M.

[2] = pH-titration of the constituent catechol groups; format: physicochemical; settings: 4 protons, 4 constituent catechol groups
Procedure: Compound 2. Using method B, precusor 3 (1.0 g, 1.0 mmol) dissolved in CH2 Cl2 (25 ml) was added dropwise (15 min) via an addition funnel to an ice bath cooled, vigorously stirred solution of BBR3 (2 ml, 21 mmol) in CH2 Cl2 solution (25 ml). The ice bath was allowed to warm up to room temperature as the reaction slurry was stirred overnight. Cautious addition of H2 O (20 ml) was followed by an additional 2 hrs stirring to hydrolyze all boron compounds. Crude product was collected by filtration and washed well with H2 O. The pink-tan solid was dissolved in MeOH and precipitated by the addition of Et2 O. Drying at 115° (5-10 microns) overnight gave the demethylated product, compound 2 (0.88 mmol, 88%) as hygroscopic powder which analyzed with two waters of crystallization: m.p.
Compound 3 (1.0 g, 1.2 mmol) was dissolved in 98% H2 SO4 (5 ml), then SOCl2 (5 ml, 55 mmol) was added dropwise over a period of 1 hr with vigorous stirring. The reactants were protected from the atmosphere with a Drierite tube. After stirring overnight, the reaction mixture was poured onto ice. Workup as in method C gave white solid, 1.49 g (1.0 mmol, 85%) which analyzed as compound 4.3 NaCl.H2 O: IR (KBr) identical to that recorded in method A; purity also established by pH-titration giving pKa1 8.12 (4 protons) and pKa2 12.0 (4 protons) for the four constituent catechol groups.
Using precisely the same Method D, compound 7 was converted to compound 8. Thus was obtained hygroscopic white solid, 1.4 g (90%); IR (KBr) 2800-3700 s, 1600 s (>N--CO--), 1475, 1425 m, 1150-1300 s (--SO3 ^-1), 1100, 1045 s (--SO3^-), 620 (--SO3^-); purity also established by pH-titration giving pKa1 7.49 (4 protons) and pKa2 12.1 (4 protons) for the four constituent catechol groups.

animals = test: Toxicity studies / toxicity to animals; settings: in vivo
[3] = qualitative observation of dissolution of Pu(IV) in the presence of the compound
[4] = I.M., killed 1 day after Pu injection, 18 weeks old
[5] = I.P., killed 2 days after Pu injection, 74 weeks old
[6] = I.P., killed 1 day after Pu injection, 13.5 weeks old
[7] = I.M., killed 2 days after Pu injection, 68 weeks old

Compound: 1,4,8,11-N,N',N'',N'''-Tetra(2,3-dihydroxybenzoyl)tetraazaundecane potassium sulfonate [Compound 10]
- Feces, distribution of ^238 Pu-citrate (mean) [1, 4]: 2.2
- G.I., distribution of ^238 Pu-citrate (mean) [1, 4]: 10.2
- Kidney, distribution of ^238 Pu-citrate (mean) [1, 4]: 4.8
- Liver, distribution of ^238 Pu-citrate (mean) [1, 4]: 28.8
- Skel, distribution of ^238 Pu-citrate (mean) [1, 4]: 12.1
- Skin, distribution of ^238 Pu-citrate (mean) [1, 4]: 5.7
- Soft Tis, distribution of ^238 Pu-citrate (mean) [1, 4]: 7.1
- Total, distribution of ^238 Pu-citrate [1, 4]: 101.1
- Urine, distribution of ^238 Pu-citrate (mean) [1, 4]: 29.2

Compound: O=C(c1ccc([N+](=O)[O-])c(O)c1O)N1CCCN(C(=O)c2ccc([N+](=O)[O-])c(O)c2O)CCN(C(=O)c2ccc([N+](=O)[O-])c(O)c2O)CCCN(C(=O)c2ccc([N+](=O)[O-])c(O)c2O)CC1 [Compound 2, 1,4,8,11-N,N',N'',N'''-Tetra(2,3-dihydroxy-4-nitrobenzoyl)tetraazacyclotetradecane]
- Feces, distribution of ^238 Pu-citrate (mean) [1, 5]: 5.4
- G.I., distribution of ^238 Pu-citrate (mean) [1, 5]: 16.3
- Kidney, distribution of ^238 Pu-citrate (mean) [1, 5]: 6.0
- Liver, distribution of ^238 Pu-citrate (mean) [1, 5]: 36.6
- Skel, distribution of ^238 Pu-citrate (mean) [1, 5]: 7.9
- Skin, distribution of ^238 Pu-citrate (mean) [1, 5]: 11.2
- Soft Tis, distribution of ^238 Pu-citrate (mean) [1, 5]: 14.8
- Total, distribution of ^238 Pu-citrate [1, 5]: 100
- Urine, distribution of ^238 Pu-citrate (mean) [1, 5]: 1.8
- pKa1 [2]: 5.59
- pKa2 [2]: 11.8
- toxicity to animals (animals): toxic to animals

Compound: 1,6,11,16-N,N',N'',N'''-Tetra(2,3-dihydroxybenzoyl)tetraazahexadecane potassium sulfonate [Compound 8]
- pKa1 [2]: 7.49
- pKa2 [2]: 12.1

Compound: 1,5,9,13-N,N',N'',N'''-Tetra(2,3-dihydroxybenzoyl)tetraazacyclohexadecane sodium sulfonate [Compound 4]
- Feces, distribution of ^238 Pu-citrate (mean) [1, 6]: 3.1
- G.I., distribution of ^238 Pu-citrate (mean) [1, 6]: 8.2
- Kidney, distribution of ^238 Pu-citrate (mean) [1, 6]: 3.9
- Liver, distribution of ^238 Pu-citrate (mean) [1, 6]: 24.8
- Skel, distribution of ^238 Pu-citrate (mean) [1, 6]: 15.7
- Skin, distribution of ^238 Pu-citrate (mean) [1, 6]: 4.1
- Soft Tis, distribution of ^238 Pu-citrate (mean) [1, 6]: 6.4
- Total, distribution of ^238 Pu-citrate [1, 6]: 100
- Urine, distribution of ^238 Pu-citrate (mean) [1, 6]: 33.8
- pKa1 [2]: 8.12
- pKa2 [2]: 12.0

Compound: O=C(c1cccc(O)c1O)N1CCCN(C(=O)c2cccc(O)c2O)CCN(C(=O)c2cccc(O)c2O)CCCN(C(=O)c2cccc(O)c2O)CC1 [Compound 1, 1,4,8,11-N,N',N'',N'''-Tetra(2,3-dihydroxybenzoyl)tetraazacyclotetradecane]
- dissolution of Pu(IV) in presence of compound ([3]; even at high pH, qualitative): Pu(IV) dissolved in the presence of compound 1 even at high pH
- formation constant for the Pu(IV) complex ([3]; inferred from dissolution of Pu(IV) and Ksp for Pu(OH)4): very high formation constant

Compound: O=C(c1cccc(O)c1O)N1CCCN(C(=O)c2cccc(O)c2O)CCCN(C(=O)c2cccc(O)c2O)CCCN(C(=O)c2cccc(O)c2O)CCC1 [Compound 3, 1,5,9,13-N,N',N'',N'''-Tetra(2,3-dihydroxybenzoyl)tetraazacyclohexadecane]
- G.I., distribution of ^238 Pu-citrate (mean) [1, 7]: 4.4
- Kidney, distribution of ^238 Pu-citrate (mean) [1, 7]: 42.1
- Liver, distribution of ^238 Pu-citrate (mean) [1, 7]: 23.3
- Skel, distribution of ^238 Pu-citrate (mean) [1, 7]: 20.3
- Total, distribution of ^238 Pu-citrate [1, 7]: 101.6
- Urine, Feces (one value printed between both lines), distribution of ^238 Pu-citrate (mean) [1, 7]: 11.5
- acute toxicity (animals): substantially acutely non-toxic

— patent US4309305A, “In vitro removal of actinide (IV) ions” (priority 1979, dated 1982)
